Data: patent US12152035B2, “Androgen receptor binding molecule and use thereof” (Industrial Technology Research Institute, priority 2020, dated 2024)

Tests used:
Format in all cases: cell-based
VCaP cells = experiment: Cytotoxicity assay (AlamarBlue, 72 hours); conditions: 72 hours treatment, concentration not given
Experimental: (§1) Compound stock solutions of 10 mM were prepared with 100% DMSO and shaken for 10-15 seconds. The compound stock solutions were centrifuged at 12000 rpm (13523 rcf.) for 5 minutes and record the turbidity or precipitation state with a photo snapshot. The compound stock solutions were resuspended by shaking for 10-15 seconds, and serially diluted with 100% DMSO solution to make the compound concentration to 1000 μM, then to 100, 10, and 1 μM, and then 10-fold diluted with medium to 100, 10, 1, 0.1 μM (final 10% DMSO/medium) to complete compound test sample preparation. Compound treatment was performed by adding 10 μL of compound test sample to cells in each well of a 96-well plate (final 1% DMSO/medium).
(§2) Cells (CWR22Rv1 cells or VCaP cells) were cultured in RPMI-1640 medium supplemented with 10% fetal bovine serum, 10,000 U/mL penicillin and 10,000 μg/mL streptomycin. Cells were cultured at 37° C. in a humidified 5% CO2 incubator.
(§3) Cells were seeded in a 96-well plate (1×10^4 cells/well). 10 μL of the above compound test sample was added to each well of the 96-well plate on next day. After 72 hours of compound treatment, 10 μL of AlamaBlue reagent was added to each of 96 wells and incubated for 4 hours. The fluorescence value at Ex/Em=560/590 nm was read with a microplate reader, and the cytotoxicity (%) was calculated.
(§4) According to the above method, the compounds prepared above were subjected to cytotoxicity test with CWR22RV1 cells and VCaP cells.

CWR22RV1 cells = experiment: Cytotoxicity assay (AlamarBlue, 72 hours); conditions: 72 hours treatment, concentration not given
Experimental: as §1, §2, §3, §4

[1] = system: full-length androgen receptor; experiment: Western blot: degradation of full-length androgen receptor in CWR22RV1 cells; conditions: overnight
Experimental: CWR22Rv1 cells were maintained in RPMI medium supplemented with 10% fetal bovine serum and 1% penicillin-streptomycin at 37° C. in a humidified environment with 5% CO2.
CWR22Rv1 (5×10^5 cells) were seeded in each well of a 6-well plate and incubated overnight. Before compound treatment, the medium in the wells was replaced with a new medium. Cells were treated with different concentrations of compound overnight. Subsequently, cells were harvested by adding cold PBS and scraping cells. Cells were lysed according to general procedures and Western blot assays were performed to assess the ability of compounds to degrade full-length androgen receptor or androgen receptor splice variant 7. The cells or cell lysates were kept on ice at all times.
The following reagents were used in this experiment. Phosphate buffered saline (PBS) (Hyclone, SH30028.02), fetal bovine serum (Hyclone, SH30084.23, Lot AC14563276), penicillin-streptomycin solution (Hyclone, SV30010), 0.5% Trypsin-EDTA (Gibco, 15400-054), CST Lysis Buffer (CST-9803), Halt™ Protease and Phosphatase Inhibitor (ThermoFisher, 78442), Coomassie (Bradford) Protein Assay (Coomassie (Bradford) protein assay) (ThermoFisher, 23200), androgen receptor antibody (Cell Siginaling, CST-5153S), GAPDH antibody (Cell Siginaling, CST-5174S), HRP-goat-anti-rabbit (Jackson Immuno Research, 111-035-003), skim milk, SuperSignal West Pico Maximum Sensitivity substrate (ThermoFisher, 34080).
The compound prepared above was analyzed for its ability to degrade full-length androgen receptor and androgen receptor splice variant 7 in CWR22RV1 cells by Western blotting according to the method shown in item B.3-2 above.

[2] = compound concentration 0.1 (unit not given)
[3] = compound concentration 1 (unit not given)
[4] = compound concentration 10 (unit not given)

| SMILES | Cytotoxicity, VCaP cells (cell viability %) (VCaP cells) | Cytotoxicity, CWR22RV1 cells (cell viability %) (CWR22RV1 cells) | Degradation ability for full-length androgen receptor (residual rate %) [1, 2] | Degradation ability for full-length androgen receptor (residual rate %) [1, 3] | Degradation ability for full-length androgen receptor (residual rate %) [1, 4] |
| --- | --- | --- | --- | --- | --- |
| Cc1ncsc1-c1ccc(CNC(=O)[C@@H]2C[C@H](O)CN2C(=O)[C@@H](NC(=O)C2CCC(C(=O)N3CCC(C#Cc4ccc(C5CCN(C6=Nn7c(nnc7C(F)(F)F)CC6)CC5)cc4)CC3)CC2)C(C)(C)C)cc1 (stereo in doubt) [Compound 34, 1-(3,3-dimethyl-2-(4-(4-((4-(1-(3-(trifluoromethyl)-7,8-dihydro-[1,2,4]triazolo[4,3-b]pyridazin-6-yl)piperidin-4-yl)phenyl)ethynyl)piperidine-1-carbonyl)cyclohexane-1-carboxamido)butanoyl)-4-hydroxy-N-(4-(4-methylthiazol-5-yl)benzyl)pyrrolidine-2-carboxamide] | +++ (<40% : +++) | + (60-80% : +) | – | – | – |
| Cc1ncsc1-c1ccc(CNC(=O)[C@@H]2C[C@H](O)CN2C(=O)[C@@H](NC(=O)CCC#Cc2ccc(COc3ccc(C4CCN(C5=Nn6c(nnc6C(F)(F)F)CC5)CC4)cc3)cc2)C(C)(C)C)cc1 [Compound 2, (2S,4S)-1-((S)-3,3-dimethyl-2-(5-(4-((4-(1-(3-(trifluoromethyl)-7,8-dihydro-[1,2,4]triazolo[4,3-b]pyridazin-6-yl)piperidin-4-yl)phenoxy)methyl)phenyl)pent-4-ynamido)butanoyl)-4-hydroxy-N-(4-(4-methylthiazol-5-yl)benzyl)pyrrolidine-2-carboxamide] | – | + (60-80% : +) | – | – | – |
| Cc1ncsc1-c1ccc(CNC(=O)[C@@H]2C[C@H](O)CN2C(=O)[C@@H](NC(=O)COCCCOCCNC(=O)COc2ccc(C3CCN(C4=Nn5c(nnc5C(F)(F)F)CC4)CC3)cc2)C(C)(C)C)cc1 [Compound 3, (2S,4S)-1-((S)-2-tert-butyl-4,14-dioxo-15-(4-(1-(3-(trifluoromethyl)-7,8-dihydro-[1,2,4]triazolo[4,3-b]pyridazin-6-yl)piperidin-4-yl)phenoxy)-6,10-dioxa-3,13-diazapentadecane)-4-hydroxy-N-(4-(4-methylthiazol-5-yl)benzyl)pyrrolidine-2-carboxamide] | – | ++ (40-60% : ++) | – | – | – |
| Cc1ncsc1-c1ccc(CNC(=O)[C@@H]2C[C@H](O)CN2C(=O)[C@@H](NC(=O)CCOCCOCCN2CCN(c3ccc(C#Cc4ccc(C5CCN(C6=Nn7c(nnc7C(F)(F)F)CC6)CC5)cc4)cn3)CC2)C(C)(C)C)cc1 [Compound 4, (2S,4S)-1-((S)-3,3-dimethyl-2-(3-(2-(2-(4-(5-((4-(1-(3-(trifluoromethyl)-7,8-dihydro-[1,2,4]triazolo[4,3-b]pyridazin-6-yl)piperidin-4-yl)phenyl)ethynyl)pyridin-2-yl)piperazin-1-yl)ethoxy)ethoxy)propanamido)butanoyl)-4-hydroxy-N-(4-(4-methylthiazol-5-yl)benzyl)pyrrolidine-2-carboxamide] | – | + (60-80% : +) | – | – | – |
| Cc1cc([C@H](C(=O)N2C[C@H](O)C[C@H]2C(=O)N[C@@H](CC(=O)NCCOCCCCOc2ccc(C3CCN(C4=Nn5c(nnc5C(F)(F)F)CC4)CC3)cc2)c2ccc(-c3scnc3C)cc2)C(C)C)on1 [Compound 6, (2S,4R)-4-hydroxy-1-((R)-3-methyl-2-(3-methylisoxazol-5-yl)butanoyl)-N—((S)-1-(4-(4-methylthiazol-5-yl)phenyl)-3-oxo-3-(2-(4-(4-(1-(3-(trifluoromethyl)-7,8-dihydro-[1,2,4]triazolo[4,3-b]pyridazin-6-yl)piperidin-4-yl)phenoxy)butoxy)ethylamino)propyl)pyrrolidine-2-carboxamide] | – | − (<80% : −) | – | – | – |
| Cc1ncsc1-c1ccc(CNC(=O)[C@@H]2C[C@H](O)CN2C(=O)C(NC(=O)CC2O[C@H](CNC(=O)COc3ccc(C4CCN(C5=Nn6c(nnc6C(F)(F)F)CC5)CC4)cc3)[C@@H](O)[C@H]2O)C(C)(C)C)cc1 (stereo partly drawn) [Compound 7, 1-(2-(2-((3R,4S,5R)-3,4-dihydroxy-5-((2-(4-(1-(3-(trifluoromethyl)-7,8-dihydro-[1,2,4]triazolo[4,3-b]pyridazin-6-yl)piperidin-4-yl)phenoxy)acetamido)methyl)tetrahydrofuran-2-yl)acetamido)-3,3-dimethylbutanoyl)-4-hydroxy-N-(4-(4-methylthiazol-5-yl)benzyl)pyrrolidine-2-carboxamide] | – | − (<80% : −) | − (>80%; −) | − (>80%; −) | − (>80%; −) |
| Cc1ncsc1-c1ccc(CNC(=O)[C@@H]2C[C@H](O)CN2C(=O)[C@@H](NC(=O)COCCCCOc2ccc(C3CCN(C4=Nn5c(nnc5-c5ccc(C(F)(F)F)cc5)CC4)CC3)cc2)C(C)(C)C)cc1 [Compound 8, (2S,4S)-1-((S)-3,3-dimethyl-2-(2-(4-(4-(1-(3-(4-(trifluoromethyl)phenyl)-7,8-dihydro-[1,2,4]triazolo[4,3-b]pyridazin-6-yl)piperidin-4-yl)phenoxy)butoxy)acetamido)butanoyl)-4-hydroxy-N-(4-(4-methylthiazol-5-yl)benzyl)pyrrolidine-2-carboxamide] | – | +++ (<40% : +++) | − (>80%; −) | + (60-80%: +) | +++ (<40%: +++) |
| Cc1ncsc1-c1ccc(CNC(=O)[C@@H]2C[C@H](O)CN2C(=O)[C@@H](NC(=O)CCCN2CCC(C#Cc3ccc(C4CCN(C5=Nn6c(nnc6C(F)(F)F)CC5)CC4)cc3)CC2)C(C)(C)C)cc1 [Compound 13, (2S,4S)-1-((S)-3,3-dimethyl-2-(4-(4-((4-(1-(3-(trifluoromethyl)-7,8-dihydro-[1,2,4]triazolo[4,3-b]pyridazin-6-yl)piperidin-4-yl)phenyl)ethynyl)piperidin-1-yl)butanamido)butanoyl)-4-hydroxy-N-(4-(4-methylthiazol-5-yl)benzyl)pyrrolidine-2-carboxamide] | +++ (<40% : +++) | +++ (<40% : +++) | – | – | – |
| Cc1ncsc1-c1ccc(CNC(=O)[C@@H]2C[C@H](O)CN2C(=O)[C@@H](NC(=O)COCCCOc2ccc(C3CCN(C4=Nn5c(nnc5C(F)(F)F)CC4)CC3)cc2)C(C)(C)C)cc1 [Compound 20, (2S,4S)-1-((S)-3,3-dimethyl-2-(2-(3-(4-(1-(3-(trifluoromethyl)-7,8-dihydro-[1,2,4]triazolo[4,3-b]pyridazin-6-yl)piperidin-4-yl)phenoxy)propoxy)acetamido)butanoyl)-4-hydroxy-N-(4-(4-methylthiazol-5-yl)benzyl)pyrrolidine-2-carboxamide] | ++ (40-60% : ++) | +++ (<40% : +++) | – | – | – |
| Cc1ncsc1-c1ccc(CNC(=O)C2CC(O)CN2C(=O)C(NC(=O)CC2O[C@H](COc3ccc(C4CCN(C5=Nn6c(nnc6C(F)(F)F)CC5)CC4)cc3)[C@@H](O)[C@H]2O)C(C)(C)C)cc1 (stereo partly drawn) [Compound 29, 1-(2-(2-((3R,4S,5R)-3,4-dihydroxy-5-((4-(1-(3-(trifluoromethyl)-7,8-dihydro-[1,2,4]triazolo[4,3-b]pyridazin-6-yl)piperidin-4-yl)phenoxy)methyl)tetrahydrofuran-2-yl)acetamido)-3,3-dimethylbutanoyl)-4-hydroxy-N-(4-(4-methylthiazol-5-yl)benzyl)pyrrolidine-2-carboxamide] | – | − (<80% : −) | + (60-80%: +) | − (>80%; −) | − (>80%; −) |
